Patent US6846842B2, “Pyruvate ester composition and method of use for resuscitation after events of ischemia and reperfusion” (Beth Israel Deconess Medical Center, Inc., priority 1999, dated 2005)

Columns and labels:
[1] = Stability and enolization of pyruvate esters in Ringer's solution (NMR, ultraviolet absorption); format: physicochemical; details: for absorbance: 28 mM solution, 300-340 nm; for average absorption, corrected for blanks: 1 mMolar solution, 230-260 nm
Method: Specifically, the preferred embodiment of this “pyruvated” Ringer's solution for use in NMR, stability, and subsequent biological studies is shown in Table 2.
Following the procedural recommendations for analysis of Margolis et al. (1986) with respect to scanning times and frequencies on a 400 MHz spectrometer operating in pulse. […] The ultraviolet absorptions of these solutions were also measured periodically over the 230-260 nm range and 300-340 nm span, where changes in enol formation become evident, and provided confirmatory evidence about the distinctly different salvation properties of pyruvate ester analogs in comparison to pyruvate salts applied in the various methods of prior art.
The experimental sequence in which to establish the greater utility of the pyruvate derivatives in this invention follows along the same lines as the comparative spectral experiments just described.
When 28 mM solutions were examined in a similar manner at 300-340 nm, the absorbance of pyruvate remained unchanged before and after calcium addition at a value of 0.03, while the ethyl pyruvate solutions become noticeably straw colored to the naked eye, rising in absorbance from 0.07 to 0.85. The yellow coloration and increases in spectrophotometric absorption in the ultraviolet region confirms the formation of a 1,3-conjugated ketone system, as would result from the enolization of ethylpyruvate under conditions which appear not to enolize pyruvic acid.

[2] = test system: ischemia/reperfusion mucosal injury, small intestine; assay: Rat model of superior mesenteric artery occlusion (ischemia/reperfusion mucosal injury and barrier dysfunction); format: in vivo, male Sprague-Dawley rats; details: for mucosal thickness (MT) / villous height (VH): 28 mM infusate, mean ± SEM, n=6; for mucosal permeability (FITC-dextran, everted gut sac): during reperfusion
Method: The model system and calculation parameters are illustrated in FIG. 3.
Heart rate and mean arterial blood pressure were measured via a right carotid arterial catheter. The left internal jugular vein was cannulated for intravenous infusions.
Controls (n=6) received lactated Ringer's solution (lactate, […], 111.5 ml/kg/hr infusion, 1.5 ml/kg bolus prior to ischemia, and a 3.0 ml/kg bolus prior to reperfusion). Experimental groups (n=6 each) received similar volumes (3 ml) of either pyruvate, Na salt (28 mM) or pyruvate ethyl ester (28 mM), prepared in accordance with the method of this invention as shown in Table 2 and at a dosage rate equivalent to 10 mg/kg/hr. Small intestinal mucosal-to-serosal permeability (CMS, nl/min/cm^2) of FITC- dextran (mw=4 kDA) was evaluated using an everted gut sac technique as previously described by Wattanasirichaigoon (1999). Permeability was measured at baseline, after 30 and 60 minutes of ischemia ([…]) respectively, and after 30 and 60 minutes of reperfusion (R30 and R60, respectively). Histologic samples at baseline, 160 and R60 were evaluated for villous height (VH, μ) and mucosal thickness (MT, μ). Mucosal injury grade was determined according to the method described by Chiu et al. (1970), scored as in Table 3, as follows:
Data were summarized as means±standard error of the mean. Significances of differences were determined using Student's t-test. Differences were considered significant for p<0.05.

[3] = concentrations of 1 Mol/liter or less, standing for 48 hrs; cited from earlier work
[4] = I60 (after 60 minutes of ischemia)
[5] = R60 (after 60 minutes of reperfusion)

Compound	absorbance ([1]; after calcium addition)	absorbance ([1]; before calcium addition)	average absorption, corrected for blanks ([1]; absence of calcium, pH 7.2)	average absorption, corrected for blanks ([1]; after addition of calcium)	stability of aqueous solution ([1]; in the presence of calcium salts (Ringer's solution))	mucosal thickness (MT) ([2]; Baseline) [μ]	villous height (VH) ([2]; Baseline) [μ]	mucosal injury score ([2]; Chiu grade 0-5 (Table 3), FIG. 5)	cytoprotection as judged by the extent of permeability increase ([2]; FIG. 4)	mucosal thickness (MT) [2, 4] [μ]	villous height (VH) [2, 4] [μ]	mucosal thickness (MT) [2, 5] [μ]	villous height (VH) [2, 5] [μ]	villous height and mucosal thickness ([2]; during both ischemia and reperfusion, p<0.01)	mucosal permeability (FITC-dextran, everted gut sac) ([2]; FIG. 4)	dimer (4-hydroxy-4-methyl-2-ketoglutaric acid) formed [3]	hydrate formed [3]
CCOC(=O)C(C)=O [Ethyl pyruvate (4), ethyl pyruvate]	0.85	0.07	0.2	0.41	more stable aqueous solution than sodium pyruvate	583	486 ± 12	significant diminution	significant trend towards effecting earlier and greater cytoprotection	466	381 ± 24	352	296 ± 26	significantly maintained	significantly decreased		
CC(=O)C(=O)[O-].[Na+] [Na Pyruvate (1), sodium pyruvate]															significantly decreased	20-25%	6-10%
CC(=O)C(=O)O [pyruvic acid, reference compound]			0.15														
Lactate [reference compound]						553 ± 34	470 ± 30			298 ± 32	244 ± 20	141 ± 22	130 ± 25				
